Molecular target: T1, Aβ40 (Homo sapiens, UniProt P05067)
T1 construct: pre-treated Aβ40 (40 μM in 20 mM Tris, pH 7.4)
Test: Thioflavin T (ThT) Aβ aggregation assay
Type: biochemical
Conditions: for IC50: 20 μM Aβ40, 37 degrees C; for inhibition at 50 µM: 50 μM compound
Method: Aβ40 (1.0 mg) was pre-treated in a 1.5 mL microfuge tube with HFIP (1 mL) and sonicated for 20 min to disassemble any pre-formed Aβ aggregates. The HFIP was removed with a stream of argon and the Aβ dissolved in Tris base (5.8 mL, 20 mM, pH ˜10). The pH was adjusted to 7.4 with concentrated HCl (−10 μL) and the solution filtered using a syringe filter (0.2 μm) before being used.
The kinetic ThT assay for Aβ aggregation is similar to that of Chalifour et al (Chalifour et al, 2003, J. Biol. Chem. 278:34874-81). Briefly, pre-treated Aβ40 (40 μM in 20 mM Tris, pH 7.4), was diluted with an equal volume of 8 μM ThT in Tris (20 mM, pH 7.4, 300 mM NaCl). Aliquots of Aβ/ThT (200 μL) were added to wells of a black polystyrene 96-well plate, followed by 2 μL of a compound in DMSO (variable concentration), or DMSO alone (controls). Incubations were performed in triplicate and were taken to contain 20 μM Aβ, various concentration of compound in 20 mM Tris, pH 7.4, 150 mM NaCl, 1% DMSO. Plates were covered with clear polystyrene lids and incubated at 37 degrees C. in a Tecan Genios microplate reader. Fluorescence readings (λex=450 nm, λem=480 nm) were taken every 15 min., after first shaking at high intensity for 15 s and allowing to settle for 10 s before each reading. Active compounds attenuated the increase in fluorescence over time that occurred in controls.

T1 sequence (P05067 672-711 limits assumed): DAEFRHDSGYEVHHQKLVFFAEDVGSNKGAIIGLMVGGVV

SMILES	IC50	inhibition at 50 µM
CC(C)Nc1cc(F)cc(N2CCN(C(=O)c3ccccc3)CC2)c1 [TRV 1179, (4-(3-fluoro-5-(isopropylamino)phenyl)piperazin-1-yl)(phenyl)methanone]	> 50 µM	–
O=C(c1ccccc1)N1CCN(c2ccc(OC(F)(F)F)c(NCc3ccccc3)c2)CC1 [TRV 1185, (4-(3-(benzylamino)-4-(trifluoromethoxy)phenyl)piperazin-1-yl)(phenyl)methanone]	> 50 µM	–
CC(C)N(C)c1cc(N2CCN(C(=O)c3ccccc3)CC2)ccc1[N+](=O)[O-] [TRV 1152, (4-(3-(isopropyl(methyl)amino)-4-nitrophenyl)piperazin-1-yl)(phenyl)methanone]	16.9 ± 0.52 µM	–
O=C(c1ccccc1)N1CCN(c2cc(F)c(F)c(NCc3ccccc3)c2)CC1 [TRV 1190, (4-(3-(benzylamino)-4,5-difluorophenyl)piperazin-1-yl)(phenyl)methanone]	~50 µM	–
N#Cc1ccc(N2CCN(C(=O)c3ccccc3)CC2)cc1N1CCCC1 [TRV 1167, 4-(4-benzoylpiperazin-1-yl)-2-(pyrrolidin-1-yl)benzonitrile]	> 50 µM	–
O=C(c1ccccc1)N1CCN(c2ccc(F)c(NCc3ccccc3)c2)CC1 [TRV 1159, (4-(3-(benzylamino)-4-fluorophenyl)piperazin-1-yl)(phenyl)methanone]	> 50 µM	–
NC(=O)c1cccc(-c2ccc([N+](=O)[O-])c(NCc3ccccc3)c2)c1 [TRV 1103, 3′-(benzylamino)-4′-nitrobiphenyl-3-carboxamide]	10.5 ± 0.75 µM	–
CN(C)C(=O)C1CCCN(c2ccc([N+](=O)[O-])c(NCc3ccccc3)c2)C1 (stereo not drawn) [TRV 1132, 1-(3-(benzylamino)-4-nitrophenyl)-N,N-dimethylpiperidine-3-carboxamide]	11.5 ± 0.29 µM	–
O=[N+]([O-])c1ccc(-c2cccc(C(O)(O)C(F)(F)F)c2)cc1NCc1ccccc1 [TRV 1153, 1-(3′-(benzylamino)-4′-nitro-[1,1′-biphenyl]-3-yl)-2,2,2-trifluoroethane-1,1-diol]	7.08 ± 0.19 µM	–
CC(=O)c1cccc(-c2ccc([N+](=O)[O-])c(NCc3ccccc3)c2)c1 [TRV 1124, 1-(3′-(benzylamino)-4′-nitrobiphenyl-3-yl)ethanone]	6.49 ± 2.5 µM	–
CC(C)Nc1cc(N2CCN(C(=O)c3ccccc3)CC2)ccc1F [TRV 1160, (4-(4-fluoro-3-(isopropylamino)phenyl)piperazin-1-yl)(phenyl)methanone]	> 50 µM	–
O=C(c1ccccc1)N1CCN(c2ccc(S(=O)(=O)C(F)(F)F)c(NCc3ccccc3)c2)CC1 [TRV 1186, (4-(3-(benzylamino)-4-((trifluoromethyl)sulfonyl)phenyl)piperazin-1-yl)(phenyl)methanone]	> 50 µM	–
O=C(C1CCCN(c2ccc([N+](=O)[O-])c(NCc3ccccc3)c2)C1)N1CCCC1 (stereo not drawn) [TRV 1131, (1-(3-(benzylamino)-4-nitrophenyl)piperidin-3-yl)(pyrrolidin-1-yl)methanone]	27.8 ± 27.6 µM	–
O=C(c1ccccc1)N1CCN(c2ccc(F)c(N3CCCC3)c2)CC1 [TRV 1162, (4-(4-fluoro-3-(pyrrolidin-1-yl)phenyl)piperazin-1-yl)(phenyl)methanone]	> 50 µM	–
O=C(c1ccccc1)N1CCN(c2ccc([N+](=O)[O-])c(N3CCCCC3)c2)CC1 [TRV 1137, (4-(4-nitro-3-(piperidin-1-yl)phenyl)piperazin-1-yl)(phenyl)methanone]	~10 µM	–
O=C(c1ccccc1)N1CCN(c2cc(F)c(F)c(N3CCCC3)c2)CC1 [TRV 1156, (4-(3,4-difluoro-5-(pyrrolidin-1-yl)phenyl)piperazin-1-yl)(phenyl)methanone]	> 50 µM	–
CC(C)Nc1ccc(N2CCN(C(=O)c3ccccc3)CC2)cc1N1CCCC1 [TRV 1157, (4-(4-(isopropyl amino)-3-(pyrrolidin-1-yl)phenyl)piperazin-1-yl)(phenyl)methanone]	> 50 µM	–
O=C(c1ccccc1)N1CCN(c2ccc(-n3cnnn3)c(N3CCCC3)c2)CC1 [TRV 1164, phenyl(4-(3-(pyrrolidin-1-yl)-4-(1H-tetrazol-1-yl)phenyl)piperazin-1-yl)methanone]	> 50 µM	–
CC(C)Nc1cc(N2CCN(C(=O)c3ccccc3)CC2)ccc1[N+](=O)[O-] [TRV 1144, (4-(3-(isopropylamino)-4-nitrophenyl)piperazin-1-yl)(phenyl)methanone]	> 10 µM	–
O=C(c1ccccc1)N1CCN(c2ccc(Cl)c(Nc3ccccc3)c2)CC1 [TRV 1094, (4-(4-chloro-3-(phenylamino)phenyl)piperazin-1-yl)(phenyl)methanone]	31.6 ± 4.8 µM	–

SMILES	IC50	inhibition at 50 µM
CC1CN(c2ccc([N+](=O)[O-])c(Nc3ccccc3)c2)CCN1C(=O)c1ccccc1 (stereo not drawn) [TRV 1099, (2-methyl-4-(4-nitro-3-(phenylamino)phenyl)piperazin-1-yl)(phenyl)methanone]	6.12 ± 2.78 µM	–
CC(C)Nc1cc(N2CCN(C(=O)c3ccccc3)CC2)ccc1C#N [TRV 1168, 4-(4-benzoylpiperazin-1-yl)-2-(isopropylamino)benzonitrile]	> 50 µM	–
CC(O)c1cccc(-c2ccc(F)c(N3CCCC3)c2)c1 (stereo not drawn) [TRV 1246]	< 50 µM	56.8%
CC(=O)N1CCN(C(=O)c2cccc(-c3ccc([N+](=O)[O-])c(NCc4ccccc4)c3)c2)CC1 [TRV 1114, 1-(4-(3′-(benzylamino)-4′-nitrobiphenylcarbonyl)piperazin-1-yl)ethanone]	> 50 µM	–
O=[N+]([O-])c1ccc(-c2ccccc2-c2nnn[nH]2)cc1NCc1ccccc1 [TRV 1125, N-benzyl-4-nitro-2′-(1H-tetrazol-5-yl)-[1,1′-biphenyl]-3-amine]	12.5 ± 2.79 µM	–
CN(Cc1ccccc1)C(=O)c1cccc(-c2ccc([N+](=O)[O-])c(NCc3ccccc3)c2)c1 [TRV 1118, N-benzyl-3′-(benzylamino)-N-methyl-4′-nitrobiphenyl-3-carboxamide]	6.47 ± 4.92 µM	–
O=C(c1ccccc1)N1CCN(c2ccc(OC(F)F)c(NCc3ccccc3)c2)CC1 [TRV 1184, (4-(3-(benzyl amino)-4-(difluoromethoxy)phenyl)piperazin-1-yl)(phenyl)methanone]	> 50 µM	–
CC(C)Nc1cc(N2CCN(C(=O)c3ccccc3)CC2)cc(C(F)(F)F)c1 [TRV 1169, (4-(3-(isopropylamino)-5-(trifluoromethyl)phenyl)piperazin-1-yl)(phenyl)methanone]	> 50 µM	–
O=C(O)c1cccc(-c2ccc(Cl)c(Nc3ccccc3)c2)c1 [TRV 1097, 4′-chloro-3′-(phenylamino)-[1,1′-biphenyl]-3-carboxylic acid]	> 50 µM	–
CC1CN(c2ccc([N+](=O)[O-])c(Nc3ccccc3)c2)CC(C)N1C(=O)c1ccccc1 (stereo not drawn) [TRV 1098, (2,6-dimethyl-4-(4-nitro-3-(phenyl amino)phenyl)piperazin-1-yl)(phenyl)methanone]	3.99 ± 3.77 µM	–
O=C(c1cccc(-c2ccc([N+](=O)[O-])c(NCc3ccccc3)c2)c1)N1CCOCC1 [TRV 1113, (3′-(benzyl amino)-4′-nitrobiphenyl-3-yl)(morpholino)methanone]	> 50 µM	–
CCCN(CCC)C(=O)c1cccc(-c2ccc([N+](=O)[O-])c(NCc3ccccc3)c2)c1 [TRV 1130, 3′-(benzylamino)-4′-nitro-N,N-dipropylbiphenyl-3-carboxamide]	> 50 µM	–
CC(O)c1cccc(-c2ccc(C#N)c(N3CCCC3)c2)c1 (stereo not drawn) [TRV 1248]	~50 µM	47.9%
CN(C)C(=O)C1CCN(c2ccc([N+](=O)[O-])c(NCc3ccccc3)c2)CC1 [TRV 1134, 1-(3-(benzylamino)-4-nitrophenyl)-N,N-dimethylpiperidine-4-carboxamide]	10.7 ± 0.54 µM	–
O=C(c1ccccc1)N1CCN(c2ccc([N+](=O)[O-])c(N3CCC(N4CCCC4)CC3)c2)CC1 [TRV 1139, (4-(4-nitro-3-(4-(pyrrolidin-1-yl)piperidin-1-yl)phenyl)piperazin-1-yl)(phenyl)methanone]	~10 µM	–
CNC(=O)c1cccc(-c2ccc([N+](=O)[O-])c(NCc3ccccc3)c2)c1 [TRV 1101, 3′-(benzylamino)-N-methyl-4′-nitrobiphenyl-3-carboxamide]	> 50 µM	–
O=C(c1ccccc1)N1CCN(c2cc(N3CCCC3)cc(C(F)(F)F)c2)CC1 [TRV 1163, phenyl(4-(3-(pyrrolidin-1-yl)-5-(trifluoromethyl)phenyl)piperazin-1-yl)methanone]	> 50 µM	–
O=C(C1CCN(c2ccc([N+](=O)[O-])c(NCc3ccccc3)c2)CC1)N1CCCC1 [TRV 1133, (1-(3-(benzyl amino)-4-nitrophenyl)piperidin-4-yl)(pyrrolidin-1-yl)methanone]	17.9 ± 13.3 µM	–
CCN(CC)c1cc(N2CCN(C(=O)c3ccccc3)CC2)ccc1[N+](=O)[O-] [TRV 1135, (4-(3-(diethylamino)-4-nitrophenyl)piperazin-1-yl)(phenyl)methanone]	12.4 ± 0.62 µM	–
O=C(c1ccccc1)N1CCN(c2ccc([N+](=O)[O-])c(NC3CCC3)c2)CC1 [TRV 1149, (4-(3-(cyclobutylamino)-4-nitrophenyl)piperazin-1-yl)(phenyl)methanone]	> 10 µM	–

Source: patent US20140187556A1, “ANTI-AMYLOID COMPOUNDS AND METHODS” (Treventis Corporation, priority 2011, published 2014)
